Experimental data reported in paper PMC6176987, “Correction of cognitive deficits in mouse models of Down syndrome by a pharmacological inhibitor of DYRK1A” (Disease Models & Mechanisms, 2018).

How the values were obtained:
[1] = molecular target: T1, CK2 (Homo sapiens, UniProt P68400); assay: Recombinant protein kinase assay, CK2; assay type: biochemical; conditions: 15 µM ATP
T1 construct: Cochet

[2] = molecular target: CLK1 (Mus musculus, UniProt P22518); assay: Recombinant protein kinase assay, CLK1; assay type: biochemical
Chain of CLK1 (P22518 whole entry): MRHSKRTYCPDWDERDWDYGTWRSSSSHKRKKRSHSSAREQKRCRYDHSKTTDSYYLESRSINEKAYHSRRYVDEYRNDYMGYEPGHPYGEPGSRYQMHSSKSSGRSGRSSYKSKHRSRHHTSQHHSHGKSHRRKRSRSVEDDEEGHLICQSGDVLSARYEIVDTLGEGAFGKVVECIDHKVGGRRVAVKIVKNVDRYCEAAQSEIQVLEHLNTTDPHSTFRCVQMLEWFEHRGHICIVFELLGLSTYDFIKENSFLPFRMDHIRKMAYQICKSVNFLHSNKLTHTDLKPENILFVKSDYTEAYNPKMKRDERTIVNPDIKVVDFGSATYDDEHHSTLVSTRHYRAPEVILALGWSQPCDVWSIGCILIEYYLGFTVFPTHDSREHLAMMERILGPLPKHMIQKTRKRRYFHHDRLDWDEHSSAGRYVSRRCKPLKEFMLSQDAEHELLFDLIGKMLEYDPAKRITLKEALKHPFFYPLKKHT

[3] = test system: Tg(Dyrk1a) mice brain phosphoproteins; assay: Brain phosphoproteomic analysis, Tg(Dyrk1a) mice; assay type: in vivo, mouse; conditions: 20 mg/kg daily i.p. 19 days
Text: All tissue samples were processed for phosphoproteomics analysis based on the enrichment and separation of proteotypic phosphopeptides with HILIC (see Materials and Methods). In Tg(Dyrk1a) and Ts65Dn mice, the hippocampus, cortex and cerebellum yielded 1384, 1523 and 2004 peptides, respectively, corresponding to 886, 948 and 1229 proteins (Table 1; Tables S1-S13).
Only biological processes common to the three brain regions and both models are presented (complete biological processes are listed in Tables S11-S13).
DYRK1A substrates and their respective phosphorylation sites were identified in the phosphoproteome based on the DYRK1A phosphorylation consensus sequence R-P-x(1,3)-S/T-P ([Himpel et al., 2000]). […] Biological process enrichments of each cluster were assessed by using ToppCluster web server application. […]
Protein Identification and Quantification. […]
Precursor Mass Tolerance 10 ppm, Fragment Mass Tolerance 20 mmu, Dynamic Modifications were Oxidation of M (+15.995 Da), Deamidation of N, Q (+0.984 Da), Phosphorylation of S (+79.966 Da) and Static Modifications were iTRAQ8plex at any N-Terminus, K, Y (+304.205 Da) and Methylthio at C (+45.988 Da). […] The Reporter Ion Quantifier node included a custom iTRAQ 8plex (Thermo Scientific Instruments) Quantification Method, integration window tolerance of 10 ppm with Most Confident Centroid. […]

[4] = Pharmacokinetics and brain biodistribution of L41 after acute i.p. injection; assay type: in vivo; conditions: mouse, ip
Method: To investigate the importance of DYRK1A in cognitive deficits shown by transgenic mouse models of DS, we used a series of low molecular weight pharmacological inhibitors, collectively known as leucettines ([Debdab et al., 2011]; [Tahtouh et al., 2012]; T. Tahtouh, unpublished).
re S1. Pharmacokinetics and brain biodistribution of L41 following acute intra-
zoom on the first 8 hours.
Disease Models & Mechanisms • Supplementary information

[5] = test system: Tg(Dyrk1a) mice; assay: Place object location (POR) spatial memory in Tg(Dyrk1a) mice; assay type: in vivo, mouse; conditions: L41-treated Tg(Dyrk1a) mice
[6] = test system: DYRK1A; assay: Brain DYRK1A protein expression by western blotting after treatment; assay type: in vivo, mouse; conditions: 19 days daily i.p., transgenic and wt brains
Method: Brains were obtained from mice and snap-frozen until further use. Then tissues were weighed, homogenized and sonicated in 1 ml lysis buffer (60 mM β-glycerophosphate, 15 mM p-nitrophenylphosphate, 25 mM Mops pH 7.2, 15 mM EGTA, 15 mM MgCl2, 2 mM dithiothreitol, 1 mM sodium orthovanadate, 1 mM sodium fluoride, 1 mM phenylphosphate disodium and protease inhibitor cocktail) per g of material. Homogenates were centrifuged for 15 min at 17,000 g and 4°C. The supernatant was recovered and assayed for protein content (Bio-Rad, France). The proteins were separated by 10% NuPAGE pre-cast Bis-Tris polyacrylamide mini gel electrophoresis (Invitrogen, France) with MOPS-SDS running buffer. Proteins were transferred to 0.45-µm nitrocellulose filters (Schleicher and Schuell, Germany). They were blocked with 5% low-fat milk in Tris-buffered […]/Tween 20, and incubated overnight at 4°C with antibodies. Anti-DYRK1A (H00001859-M01; 1:1000) and anti-GSK-3α/β (KAM-ST002E; 1:1000) were obtained from Interchim (France) and Stressgen (France), respectively. Appropriate secondary antibodies conjugated to horseradish peroxidase (Bio-Rad) were added to visualize the proteins using the enhanced chemiluminescence reaction (ECL, Amersham, France).

T1 sequence (P68400 whole entry): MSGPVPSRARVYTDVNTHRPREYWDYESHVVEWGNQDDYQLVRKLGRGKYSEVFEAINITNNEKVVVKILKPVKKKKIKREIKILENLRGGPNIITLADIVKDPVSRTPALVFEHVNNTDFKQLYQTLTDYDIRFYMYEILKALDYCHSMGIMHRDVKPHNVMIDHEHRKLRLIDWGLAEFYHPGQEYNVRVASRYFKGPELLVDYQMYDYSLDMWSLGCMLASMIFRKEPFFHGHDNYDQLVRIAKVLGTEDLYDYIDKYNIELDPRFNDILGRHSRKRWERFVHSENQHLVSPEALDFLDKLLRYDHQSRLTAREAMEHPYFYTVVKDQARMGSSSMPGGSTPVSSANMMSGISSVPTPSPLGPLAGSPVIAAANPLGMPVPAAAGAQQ

Structure (SMILES): O=C1NC(Nc2ccccc2)=N/C1=C\c1ccc2c(c1)OCO2 [L41]
- IC50 [1]: 510 nM
- IC50 [2]: 23 nM
- SYN1 Ser551 phosphorylation following treatment [3]: dephosphorylated
- half-life ([4]; Tg(Dyrk1a) transgenic and wild-type (wt) mice, plasma): ~45 min
- Blood brain barrier crossing ([4]; in vivo): able to cross the blood brain barrier
- Differences in pharmacokinetics or biodistribution between transgenic and wt mice ([4]; in vivo): No differences
- L41 in brain extracts ([4]; in vivo): essentially undetectable
- Time of maximum brain concentration ([4]; in vivo): 20 min
- Time to elimination from brain after the maximum brain concentration ([4]; in vivo): 2 h
- Effect on place memory (place object location) [5]: no restoring effect
- Effect on expression of DYRK1A and GSK-3α/β protein [6]: no effect
